#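 All cell lines were grown in 96-well plates and treated with compound for 48 hours. At the GI50, growth is halved. TGI denotes the concentration required for complete inhibition of growth.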
# Assays:
# Test in all cases: NCI-60 cell line screen, 48 h
# RPMI-8226 leukemia = tested on: RPMI-8226 leukemia
# HCC-2998 colon = tested on: HCC-2998 colon
# CAKI-1 renal = tested on: CAKI-1 renal
# K-562 leukemia = tested on: K-562 leukemia
# NCI-H460 lung = tested on: NCI-H460 lung
# SNB-19 CNS = tested on: SNB-19 CNS
# OVCAR-5 ovarian = tested on: OVCAR-5 ovarian
# HOP-62 NSCLC = tested on: HOP-62 NSCLC
# SF-539 CNS = tested on: SF-539 CNS
# COLO 205 colon = tested on: COLO 205 colon
# A498 renal = tested on: A498 renal
# UACC-62 melanoma = tested on: UACC-62 melanoma
# KM12 colon = tested on: KM12 colon
# RXF 393 renal = tested on: RXF 393 renal
# IGROV1 ovarian = tested on: IGROV1 ovarian
# MDA-MB-435 = tested on: MDA-MB-435
# UO-31 renal = tested on: UO-31 renal
# EKVX NSCLC = tested on: EKVX NSCLC
# NCI-H522 lung = tested on: NCI-H522 lung
# SF-295 CNS = tested on: SF-295 CNS
# M14 melanoma = tested on: M14 melanoma
# TK-10 renal = tested on: TK-10 renal
# SW-620 colon = tested on: SW-620 colon
# OVCAR-8 ovarian = tested on: OVCAR-8 ovarian
# SK-MEL-5 melanoma = tested on: SK-MEL-5 melanoma
# CCRF-CEM leukemia = tested on: CCRF-CEM leukemia
# HOP-92 NSCLC = tested on: HOP-92 NSCLC
# LOX IMVI melanoma = tested on: LOX IMVI melanoma
# MCF7 breast = tested on: MCF7 breast
# OVCAR-4 ovarian = tested on: OVCAR-4 ovarian
# U251 CNS = tested on: U251 CNS
# DU-145 prostate = tested on: DU-145 prostate
# BT-549 breast = tested on: BT-549 breast
# SK-MEL-28 melanoma = tested on: SK-MEL-28 melanoma
# PC-3 prostate = tested on: PC-3 prostate
# OVCAR-3 ovarian = tested on: OVCAR-3 ovarian
# HT29 colon = tested on: HT29 colon
# NCI-H23 lung = tested on: NCI-H23 lung
# SR leukemia = tested on: SR leukemia
# HCT-116 colon = tested on: HCT-116 colon
# NCI-H226 lung = tested on: NCI-H226 lung
# T-47D breast = tested on: T-47D breast
# SN12C renal = tested on: SN12C renal
# MALME-3M melanoma = tested on: MALME-3M melanoma
# SF-268 CNS = tested on: SF-268 CNS
# HL-60(TB) leukemia = tested on: HL-60(TB) leukemia
# NCI/ADR-RES ovarian = tested on: NCI/ADR-RES ovarian
# HS 578T breast = tested on: HS 578T breast
# MOLT-4 leukemia = tested on: MOLT-4 leukemia
# MDA-MB-231 breast = tested on: MDA-MB-231 breast
# SNB-75 CNS = tested on: SNB-75 CNS
# HCT-15 colon = tested on: HCT-15 colon
# SK-MEL-2 melanoma = tested on: SK-MEL-2 melanoma
# ACHN renal = tested on: ACHN renal
# A549 NSCLC = tested on: A549 NSCLC
# UACC-257 melanoma = tested on: UACC-257 melanoma
# SK-OV-3 ovarian = tested on: SK-OV-3 ovarian
structure (smiles),measurement,setting,value
COc1ccc2cnc(N)c(C#Cc3cc(C(=O)Nc4ccc(CN5CCN(C)CC5)c(C(F)(F)F)c4)cnc3C)c2c1,GI50,RPMI-8226 leukemia,2550 nM
same,TGI,RPMI-8226 leukemia,23.1 µM
same,GI50,HCC-2998 colon,> 37.2 µM
same,TGI,HCC-2998 colon,> 50 µM
same,GI50,CAKI-1 renal,1560 nM
same,TGI,CAKI-1 renal,9.25 µM
same,GI50,K-562 leukemia,5 nM
same,TGI,K-562 leukemia,749 nM
same,GI50,NCI-H460 lung,1230 nM
same,TGI,NCI-H460 lung,4.46 µM
same,GI50,SNB-19 CNS,3.71 µM
same,TGI,SNB-19 CNS,14.7 µM
same,GI50,OVCAR-5 ovarian,640 nM
same,TGI,OVCAR-5 ovarian,1730 nM
same,GI50,HOP-62 NSCLC,1190 nM
same,TGI,HOP-62 NSCLC,> 18.8 µM
same,GI50,SF-539 CNS,974 nM
same,TGI,SF-539 CNS,7.91 µM
same,GI50,COLO 205 colon,208 nM
same,TGI,COLO 205 colon,> 50 µM
same,GI50,A498 renal,680 nM
same,TGI,A498 renal,3.04 µM
same,GI50,UACC-62 melanoma,190 nM
same,TGI,UACC-62 melanoma,4.2 µM
same,GI50,KM12 colon,5 nM
same,TGI,KM12 colon,9.24 µM
same,GI50,RXF 393 renal,488 nM
same,TGI,RXF 393 renal,1280 nM
same,GI50,IGROV1 ovarian,318 nM
same,TGI,IGROV1 ovarian,> 40.2 µM
same,GI50,MDA-MB-435,240 nM
same,TGI,MDA-MB-435,6.99 µM
same,GI50,UO-31 renal,412 nM
same,TGI,UO-31 renal,1220 nM
same,GI50,EKVX NSCLC,3.66 µM
same,TGI,EKVX NSCLC,19.4 µM
same,GI50,NCI-H522 lung,7.81 µM
same,TGI,NCI-H522 lung,32.9 µM
same,GI50,SF-295 CNS,9.47 µM
same,TGI,SF-295 CNS,> 33.7 µM
same,GI50,M14 melanoma,124 nM
same,TGI,M14 melanoma,5.35 µM
same,GI50,TK-10 renal,3.22 µM
same,TGI,TK-10 renal,12.4 µM
same,GI50,SW-620 colon,692 nM
same,TGI,SW-620 colon,6.25 µM
same,GI50,OVCAR-8 ovarian,9.33 µM
same,TGI,OVCAR-8 ovarian,> 28.9 µM
same,GI50,SK-MEL-5 melanoma,1060 nM
same,TGI,SK-MEL-5 melanoma,7.9 µM
same,GI50,CCRF-CEM leukemia,1970 nM
same,TGI,CCRF-CEM leukemia,13.1 µM
same,GI50,HOP-92 NSCLC,62.9 nM
same,TGI,HOP-92 NSCLC,796 nM
same,GI50,LOX IMVI melanoma,153 nM
same,TGI,LOX IMVI melanoma,8.93 µM
same,GI50,MCF7 breast,1430 nM
same,TGI,MCF7 breast,22.2 µM
same,GI50,OVCAR-4 ovarian,1710 nM
same,TGI,OVCAR-4 ovarian,14.6 µM
same,GI50,U251 CNS,1080 nM
same,TGI,U251 CNS,2810 nM
same,GI50,DU-145 prostate,2430 nM
same,TGI,DU-145 prostate,10.1 µM
same,GI50,BT-549 breast,4.22 µM
same,TGI,BT-549 breast,16.4 µM
same,GI50,SK-MEL-28 melanoma,372 nM
same,TGI,SK-MEL-28 melanoma,1290 nM
same,GI50,PC-3 prostate,2690 nM
same,TGI,PC-3 prostate,9.17 µM
same,GI50,OVCAR-3 ovarian,11.4 µM
same,TGI,OVCAR-3 ovarian,> 50 µM
same,GI50,HT29 colon,112 nM
same,TGI,HT29 colon,6.01 µM
same,GI50,NCI-H23 lung,1480 nM
same,TGI,NCI-H23 lung,12.5 µM
same,GI50,SR leukemia,707 nM
same,TGI,SR leukemia,2860 nM
same,GI50,HCT-116 colon,498 nM
same,TGI,HCT-116 colon,9.88 µM
same,GI50,NCI-H226 lung,383 nM
same,TGI,NCI-H226 lung,2590 nM
same,GI50,T-47D breast,> 50 µM
same,TGI,T-47D breast,> 50 µM
same,GI50,SN12C renal,490 nM
same,TGI,SN12C renal,> 25.3 µM
same,GI50,MALME-3M melanoma,70.8 nM
same,TGI,MALME-3M melanoma,1830 nM
same,GI50,SF-268 CNS,2680 nM
same,TGI,SF-268 CNS,> 29.6 µM
same,GI50,HL-60(TB) leukemia,1070 nM
same,TGI,HL-60(TB) leukemia,> 50 µM
same,GI50,NCI/ADR-RES ovarian,10.3 µM
same,TGI,NCI/ADR-RES ovarian,> 34.7 µM
same,GI50,HS 578T breast,269 nM
same,TGI,HS 578T breast,1500 nM
same,GI50,MOLT-4 leukemia,906 nM
same,TGI,MOLT-4 leukemia,26.8 µM
same,GI50,MDA-MB-231 breast,158 nM
same,TGI,MDA-MB-231 breast,3.91 µM
same,GI50,SNB-75 CNS,801 nM
same,TGI,SNB-75 CNS,8.9 µM
same,GI50,HCT-15 colon,1690 nM
same,TGI,HCT-15 colon,12.9 µM
same,GI50,SK-MEL-2 melanoma,3.59 µM
same,TGI,SK-MEL-2 melanoma,14.6 µM
same,GI50,ACHN renal,449 nM
same,TGI,ACHN renal,3.54 µM
same,GI50,A549 NSCLC,6.59 µM
same,TGI,A549 NSCLC,> 26.9 µM
same,GI50,UACC-257 melanoma,1200 nM
same,TGI,UACC-257 melanoma,14.4 µM
same,GI50,SK-OV-3 ovarian,> 21.1 µM
same,TGI,SK-OV-3 ovarian,> 50 µM

# — PubChem BioAssay (NCI)
